Read-outs that look alike come from different tables or passages of the source. Values belong to the compound of their own block, whether it stands above or below them.
Tests used:
[1] = read-out: Projected Cmax; 20 mg oral dose used in the B2207 study
[2] = Panobinostat plasma PK in the B2207 phase 1b trial (LC-MS/MS, non-compartmental); details: B2207, PAN + BTZ + Dex vs historical single-agent trials
Protocol: In the dose escalation part, PK samples were collected on cycle 1, day 8, and cycle 1, day 15 at pre-dose, and various intervals post-dose up to 48 h.

[3] = tested on: class I, II, and IV histone deacetylases; details: cited from earlier work
CYP2D6 = details: sensitive CYP2D6 substrate, cancer patients; cited from earlier work
patients = tested on: patients; set-up: method as in historical single-agent studies; details: 20 mg PAN (tiw qw) single agent, pooled, N = 309, ref historical single-agent studies, cited from earlier work
CYP3A = details: strong CYP3A inhibitor, cancer patients; cited from earlier work
[4] = 20 mg PAN single agent (tiw qw), multiple oral dose, N = 32, cited from earlier work
[5] = tested on: patients with advanced hematologic malignancies; details: panobinostat alone; cited from earlier work
[6] = patients with solid tumors; cited from earlier work
[7] = cited from earlier work
[8] = tested on: patients with relapsed and refractory multiple myeloma; experiment: Grade 3 or 4 adverse events and MTD in the B2207 trial; assay type: in vivo, human
Excerpt: The two combination studies, B2207 and PANORAMA-1, reported efficacy data in patients with relapsed and refractory multiple myeloma. In the current analysis, exposure–efficacy relationship was explored using the efficacy data (ORR based on IMWG criteria) from the B2207 trial.

[9] = set-up: method as in unpublished data; details: 20 mg panobinostat + 25 mg lenalidomide + 40 mg dexamethasone (day 1 through day 4); ref unpublished data; cited from earlier work
[10] = cited from earlier work; remark: listed apart in the source
[11] = Panobinostat plasma PK in the PANORAMA-1 phase 3 trial (Japan subset); assay type: in vivo, human; details: PANORAMA-1 cycle 1 day 8, PAN + BTZ + Dex, N = 12
Protocol: Each phase was of 24 weeks duration with treatment phase 1 consisting of eight, 3-week cycles and treatment phase 2 consisting of four, 6-week cycles.
In this study, plasma samples for panobinostat and bortezomib were collected in a subset of Asian patients. Blood samples were taken at scheduled time points (cycle 1, day 1, and cycle 1 day 8 at pre-dose and at 0.5, 1, 2, 3, 4, 8, 24, and 48 h post-dose) for PK analysis.

[12] = tested on: patients with multiple myeloma; details: cited from earlier work
[13] = human, plasma, oral, geometric mean (% CV)

Cmax [1]: ~30 nM
Structure (SMILES): C[C@@H]1C[C@H]2[C@@H]3CCC4=CC(=O)C=C[C@]4(C)[C@@]3(F)[C@@H](O)C[C@]2(C)[C@@]1(O)C(=O)CO [dexamethasone]

Structure (SMILES): Cc1[nH]c2ccccc2c1CCNCc1ccc(/C=C/C(=O)NO)cc1 [panobinostat, Panobinostat]
Lower panobinostat exposure at MTD in combination vs single-agent trials [2]: ~50% | Activity against histone deacetylases [3]: low nanomolar activity | Increase of dextromethorphan systemic exposure by panobinostat (CYP2D6): 60% | Grade 3 or 4 anemia (patients): 29 (9) % | Grade 3 or 4 diarrhea (patients): about 3% | Grade 3 or 4 fatigue (patients): 13 (4) % | Grade 3 or 4 nausea (patients): 6 (2) % | Grade 3 or 4 neutropenia (patients): 42 (14) % | Grade 3 or 4 thrombocytopenia (patients): about 21% | Grade 3 or 4 vomiting (patients): 4 (1) % | Grade 3 or 4 diarrhea (patients; listed as PAN): 10 (3) % | Grade 3 or 4 thrombocytopenia (patients; listed as PAN): 66 (21) % | Increase of panobinostat systemic exposure by ketoconazole (CYP3A): 80% | AUC0-24 ([4]; geometric mean (% CV)): 139 (71) ng h/mL | Cmax ([4]; geometric mean (% CV)): 21.6 (83) ng/mL | T1/2 ([4]; geometric mean (% CV)): 16.9 (33) h | Tmax ([4]; median (range)): 1 (0.5–8) h | Grade ≥3 thrombocytopenia [5]: 55% | Effect of mild, moderate, or severe renal impairment on plasma exposure [6]: did not alter the plasma exposure | Fraction of the radiolabeled dose recovered in the feces [7]: 44 to 77% | Fraction of the radiolabeled dose recovered in the urine [7]: 29 to 51% | Number of metabolites formed [7]: over 70 | Unchanged panobinostat in the feces, % of the administered dose [7]: < 3.5% | Effective half-life (T1/2) ([7]; single agent, based on the rate of accumulation): approximately 16 h | Median Tmax ([7]; single agent, oral administration): about 2 h | Accumulation ([7]; single-agent trial): approximately 1.1 fold | Dose linearity of pharmacokinetics ([7]; tested dose range between 10 and 30 mg): approximately linear | Steady state reached ([7]; thrice-weekly (tiw) dosing schedule): after the third dose | MTD ([8]; B2207, tiw, in combination with bortezomib): 20 mg | Decrease in PAN exposure compared to historical single-agent data [9]: approximately 60% | Effect of fed or fasting state on oral bioavailability [10]: marginally affected | AUC0-24 ([11]; geometric mean (% CV)): 95.2 (28.4) ng h/mL | Cmax [11, 13]: 15.3 ng/mL | half-life [11, 13]: 16.7 h | AUC(0-t) ([11]; human, plasma, oral, geometric mean (% CV), read-out: AUC0-24): 95 ng·h/mL | Vd/F ([11]; human, plasma, oral, geometric mean (% CV), read-out: Vz/F): 3550 L | Tmax ([11]; human, plasma, oral, median (range)): 2.02 h

Structure (SMILES): CC(C)C[C@H](NC(=O)[C@H](Cc1ccccc1)NC(=O)c1cnccn1)B(O)O [bortezomib]
Grade ≥3 diarrhea ([12]; 1.3 mg/m^2 IV bortezomib): 5% | Grade ≥3 diarrhea ([12]; 1.3 mg/m^2 SC bortezomib): 2% | MTD ([8]; B2207, twice-weekly (biw), in combination with panobinostat): 1.3 mg/m^2

From paper PMC4713719 (European Journal of Clinical Pharmacology, 2015)
